Source: ChEMBL document CHEMBL3397030, “Synthesis and biological evaluation of 3-phenyl-3-aryl carboxamido propanoic acid derivatives as small molecule inhibitors of retinoic acid 4-hydroxylase (CYP26A1)” (Bioorg Med Chem, 2015)
Activity calls are given as the source filed them. The calls are words filed in the database; no cut-off is given here.

What was measured:
[1] = Growth inhibition of human HL60 cells at 0.1 uM after 48 hrs by MTT assay; assay type: functional; conditions: HL-60, 48 h, read-out: GI
HL-60 [2] = experiment: Induction of cell differentiation of human HL60 cells at 0.1 uM after 72 hrs by NBT dye based assay; assay type: functional
HL-60 [3] = experiment: Induction of CYP26A1 expression in human HL60 cells at 0.1 uM after 72 hrs; assay type: functional, cell-based
Cytochrome P450 26A1 = target: T1, Cytochrome P450 26A1 (Homo sapiens, UniProt O43174); experiment: Inhibition of CYP26A1 in ATRA-induced human HL60 cell microsomes incubated for 30 mins using ATRA and NADPH by HPLC method; assay type: cell-based, HL-60
T1 sequence (O43174 whole entry): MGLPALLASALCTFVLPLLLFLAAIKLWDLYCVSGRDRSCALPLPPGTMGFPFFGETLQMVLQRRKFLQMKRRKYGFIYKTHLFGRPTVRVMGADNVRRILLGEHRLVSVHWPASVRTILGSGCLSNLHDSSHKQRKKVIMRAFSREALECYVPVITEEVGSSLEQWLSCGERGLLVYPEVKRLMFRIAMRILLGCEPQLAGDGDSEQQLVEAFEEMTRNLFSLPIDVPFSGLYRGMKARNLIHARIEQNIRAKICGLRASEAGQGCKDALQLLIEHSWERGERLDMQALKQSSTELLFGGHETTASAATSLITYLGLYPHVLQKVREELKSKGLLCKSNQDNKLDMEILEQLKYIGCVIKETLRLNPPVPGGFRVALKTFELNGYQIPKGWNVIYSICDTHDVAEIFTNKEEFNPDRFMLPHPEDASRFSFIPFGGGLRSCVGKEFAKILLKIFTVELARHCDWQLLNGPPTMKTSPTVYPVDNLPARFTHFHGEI

[4] = Growth inhibition of human HL60 cells at 10 uM after 48 hrs by MTT assay; assay type: functional; conditions: HL-60, 48 h, read-out: GI
[5] = Growth inhibition of human HL60 cells at 10 uM in presence of 0.1 uM ATRA after 48 hrs by MTT assay; assay type: functional, HL-60
HL-60 [6] = experiment: Induction of cell differentiation of human HL60 cells at 10 uM after 72 hrs by NBT dye based assay; assay type: functional
HL-60 [7] = experiment: Induction of cell differentiation of human HL60 cells at 10 uM in presence of 0.1 uM ATRA after 72 hrs by NBT dye based assay; assay type: functional

Compound | inhibition of growth at 0.1 µM [1] | Activity (HL-60 [2]) | Activity (HL-60 [3]) | IC50 (Cytochrome P450 26A1) | inhibition of growth at 10 µM [4] | growth inhibition (GI) [5] | Activity (HL-60 [6]) | Activity (HL-60 [7])
CC1=C(/C=C/C(C)=C/C=C/C(C)=C/C(=O)O)C(C)(C)CCC1 [TRETINOIN] | 23.8% | 26.07% | Active |  |  |  |  | 
Cc1nn(-c2ccccc2)c(Cl)c1C(=O)NC(CC(=O)O)c1cccc(Br)c1 (configuration not stated) |  |  |  | 1870 nM | 6.16% | 56.15% | 0% | 48.51%
Clc1cccc(C(c2ccc3[nH]cnc3c2)n2ccnc2)c1 (configuration not stated) [LIAROZOLE] |  |  |  |  | 15.4% | 48.26% | 0% | 46.71%
Cc1ccc(C(CC(=O)O)NC(=O)c2cc(C)oc2C)cc1 (configuration not stated) |  |  |  | 3090 nM | 5.85% | 44.85% | 0% | 42.62%
Cc1cc(C(=O)NC(CC(=O)O)c2ccc(Cl)cc2)c(C)o1 (configuration not stated) |  |  |  | 2730 nM | 10.3% | 49.53% | 0% | 46.61%
